Experiment [1] concerns the target T1, GST-tagged truncated LRRK2 (Homo sapiens, UniProt Q5S007).
T1 construct: GST-tagged truncated LRRK2 from Invitrogen (Cat # PV4874); GST; purchased Invitrogen PV4874
Description: LRRK2 Assay, Format 1 (Lantha Screen), WT. The class given is biochemical. Here is the method: LRRK2 kinase activity was measured using Lantha Screen technology from Invitrogen. GST-tagged truncated LRRK2 from Invitrogen (Cat # PV4874) was incubated with a fluorescein-labeled peptide substrate based upon ezrin/radixin/moesin (ERM), also known as LRRKtide (Invitrogen cat # PR8976A), in the presence of a dose response of compound. Upon completion, the assay was stopped and detected with a terbium labeled anti-phospho-ERM antibody (Invitrogen, cat # PR8975A). […] Aliquots (3.5 μL) of the 100% DMSO dose response were mixed with 46.5 μL water then 1 μL of this mixture was added to the 3 μL substrate mix in the 384-well plate. The kinase reaction was started with 3 μL of a working solution of LRRK2 enzyme at a concentration of 4 μg/mL. […] The reaction was allowed to progress at room temperature for two hours and then stopped with the addition of 7 μL of detection buffer (20 mM Tris pH 7.6, 0.01% NP-40, 0.02% NaN3, 6 mM EDTA with 2 nM terbium labeled anti-phospho-ERM).

For experiment [2], the target named is T2, mutant G2019S LRRK2 (Homo sapiens, UniProt Q5S007, G2019S). As to the kind of experiment: LRRK2 Assay, Format 1 (Lantha Screen), G2019S mutant.
Experiment [3] deals with T2, mutant G2019S LRRK2. Description: LRRK2 Assay, Format 2 (Lantha Screen), G2019S mutant. It is filed as biochemical. Further details: purchased Invitrogen PV4881. The following applies: geometric mean of 2-4 determinations unless otherwise indicated (a: >=5; b: single determination); read-out: LRRK2, Format 2 G2019S IC50.
Experiment [4] deals with T1, GST-tagged truncated LRRK2. As to the kind of experiment: LRRK2 Assay, Format 2 (Lantha Screen), WT. It is filed as biochemical. The following applies: geometric mean of 2-4 determinations unless otherwise indicated (a: >=5; b: single determination).
Setting [5] is: Format 1, wild-type LRRK2, geometric mean of 2-4 determinations unless footnoted (a: ≥5 determinations; b: single determination; c: determined on trifluoroacetate salt).
The mark [6] stands for this setting: 100 nM LRRKtide, 50 μM ATP, 1.7 μg/mL LRRK2 enzyme, two hours at room temperature.

The source of these data is patent US10039753B2, “Imidazo[4,5-c]quinoline and imidazo[4,5-c][1,5]naphthyridine derivatives as LRRK2 inhibitors” (Pfizer Inc., priority 2015, dated 2018).

Structures are written as SMILES. pIC50: −log10 of the molar value. Counter-ions that a name gives are not always drawn.

T2 sequence (Q5S007 970-2527 G2019S limits assumed): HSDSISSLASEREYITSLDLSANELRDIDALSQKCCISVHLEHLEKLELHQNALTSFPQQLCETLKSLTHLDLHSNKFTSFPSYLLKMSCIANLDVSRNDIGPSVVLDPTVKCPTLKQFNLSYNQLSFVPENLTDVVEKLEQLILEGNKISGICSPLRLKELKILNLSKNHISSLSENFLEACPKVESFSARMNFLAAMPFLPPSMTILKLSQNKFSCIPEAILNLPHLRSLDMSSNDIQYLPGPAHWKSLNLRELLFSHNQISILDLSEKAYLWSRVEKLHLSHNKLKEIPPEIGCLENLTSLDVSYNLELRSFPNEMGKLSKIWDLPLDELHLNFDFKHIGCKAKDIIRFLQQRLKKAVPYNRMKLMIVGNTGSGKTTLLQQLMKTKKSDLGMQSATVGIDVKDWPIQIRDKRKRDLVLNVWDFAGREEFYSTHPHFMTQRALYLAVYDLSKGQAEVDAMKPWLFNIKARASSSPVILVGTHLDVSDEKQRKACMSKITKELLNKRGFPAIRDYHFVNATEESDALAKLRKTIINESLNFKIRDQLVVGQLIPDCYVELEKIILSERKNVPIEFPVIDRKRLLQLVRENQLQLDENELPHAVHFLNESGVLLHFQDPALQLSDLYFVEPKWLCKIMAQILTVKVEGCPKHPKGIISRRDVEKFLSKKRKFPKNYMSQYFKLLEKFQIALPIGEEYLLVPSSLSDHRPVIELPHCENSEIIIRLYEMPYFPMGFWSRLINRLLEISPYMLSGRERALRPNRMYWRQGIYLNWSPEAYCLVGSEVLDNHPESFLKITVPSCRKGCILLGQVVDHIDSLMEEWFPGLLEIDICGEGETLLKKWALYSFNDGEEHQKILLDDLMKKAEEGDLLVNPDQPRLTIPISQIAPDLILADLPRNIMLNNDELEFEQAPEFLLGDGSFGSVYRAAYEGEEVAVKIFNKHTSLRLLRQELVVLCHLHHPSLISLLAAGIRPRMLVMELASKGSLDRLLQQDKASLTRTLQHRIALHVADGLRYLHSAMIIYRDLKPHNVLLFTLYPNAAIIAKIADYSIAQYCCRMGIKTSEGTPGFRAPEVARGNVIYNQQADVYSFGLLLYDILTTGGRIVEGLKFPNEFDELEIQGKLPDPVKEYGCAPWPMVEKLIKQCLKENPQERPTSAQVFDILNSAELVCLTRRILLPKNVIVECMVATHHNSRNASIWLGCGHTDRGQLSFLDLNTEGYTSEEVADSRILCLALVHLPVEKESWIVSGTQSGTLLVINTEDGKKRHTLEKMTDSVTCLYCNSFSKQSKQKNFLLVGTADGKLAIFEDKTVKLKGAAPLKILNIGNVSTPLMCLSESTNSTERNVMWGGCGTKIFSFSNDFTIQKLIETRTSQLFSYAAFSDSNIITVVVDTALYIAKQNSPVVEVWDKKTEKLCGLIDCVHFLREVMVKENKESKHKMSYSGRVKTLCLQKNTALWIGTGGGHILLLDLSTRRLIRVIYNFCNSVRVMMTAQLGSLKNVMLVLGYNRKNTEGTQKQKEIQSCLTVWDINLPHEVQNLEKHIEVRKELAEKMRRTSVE
T1 sequence (Q5S007 970-2527 limits assumed): as the sequence (Q5S007 970-2527 G2019S limits assumed) above, with S1050G counted along it

The term pIC50 denotes −log10 of the IC50, conventionally taken in molar units. With `Cc1nn2cc(Cc3nc4cnc5ccccc5c4n3C3CCOCC3)nc2s1` [Example 38, 2-[(2-methylimidazo[2,1-b][1,3,4]thiadiazol-6-yl)methyl]-1-(tetrahydro-2H-pyran-4-yl)-1H-imidazo[4,5-c]quinoline], the negative-log IC50 (pIC50) in experiment [1] (setting [5]) is 7.44; on mutant G2019S LRRK2 [2], 7.38.
`F[C@H]1CC[C@@H](n2c(Cc3nc4ccccc4o3)nc3cnc4ccccc4c32)C1` [Example 28, 2-(1,3-benzoxazol-2-ylmethyl)-1-[(1R,3S)-3-fluorocyclopentyl]-1H-imidazo[4,5-c]quinoline]: the negative logarithm of the IC50 (pIC50) is 6.82 in experiment [1] (setting [5]) and 6.80 against mutant G2019S LRRK2 [2].
Consider `C[C@@H]1C[C@H](n2c(Cn3cncn3)nc3cnc4ccc(Cl)cc4c32)CCO1` (single isomer, unassigned) [Example 65], for which the values for the pIC50 (in experiment [1] (setting [5]); on mutant G2019S LRRK2 [2]) were 8.55 and 8.74, respectively.
For the compound `COCc1cn(Cc2nc3cnc4ccccc4c3n2C2CCOCC2)nn1` [Example 33, 2-{[4-(methoxymethyl)-1H-1,2,3-triazol-1-yl]methyl}-1-(tetrahydro-2H-pyran-4-yl)-1H-imidazo[4,5-c]quinoline], the negative logarithm of the IC50 (pIC50) is 6.91 in experiment [1] (setting [5]) and 6.76 at mutant G2019S LRRK2 [2].
Take `C[C@H]1C[C@@H](n2c(Cc3cscn3)nc3cnc4ccc(Br)cc4c32)CCO1` (racemic) [Example 56, 8-bromo-1-(cis-2-methyltetrahydro-2H-pyran-4-yl)-2-(1,3-thiazol-4-ylmethyl)-1H-imidazo[4,5-c]quinoline]: the pIC50 was 8.00 in experiment [1] (setting [5]) and 8.28 against mutant G2019S LRRK2 [2].
The like results for `CC1(C)CC(n2c(Cc3cscn3)nc3cnc4ccc(F)cc4c32)CCO1` (stereo not shown) [Example 80, 1-(2,2-dimethyltetrahydro-2H-pyran-4-yl)-8-fluoro-2-(1,3-thiazol-4-ylmethyl)-1H-imidazo[4,5-c]quinoline, trifluoroacetate salt] were, in that order, 7.28 and 7.40.
With `CC[C@H]1C[C@@H](n2c(Cc3ccon3)nc3cnc4ccc(Br)cc4c32)CCO1` (racemic) [Example 66, 8-bromo-1-(cis-2-ethyltetrahydro-2H-pyran-4-yl)-2-(1,2-oxazol-3-ylmethyl)-1H-imidazo[4,5-c]quinoline], the values for the pIC50 (in experiment [1] (setting [5]); at mutant G2019S LRRK2 [2]) were 7.49 and 7.79, respectively.
With `CC1(C)CC(n2c(Cn3cc(C(F)(F)F)cn3)nc3cnc4ccc(F)cc4c32)CCO1` (stereo not shown) [Example 81, 1-(2,2-dimethyltetrahydro-2H-pyran-4-yl)-8-fluoro-2-{[4-(trifluoromethyl)-1H-pyrazol-1-yl]methyl}-1H-imidazo[4,5-c]quinoline, trifluoroacetate salt], the pIC50 is 6.80 in experiment [1] (setting [5]) and 6.92 against mutant G2019S LRRK2 [2].
Turning to `Cc1nc2cnc3ccccc3c2n1[C@H]1CCO[C@@H](C)C1` (racemic) [Example 15, 2-methyl-1-(cis-2-methyltetrahydro-2H-pyran-4-yl)-1H-imidazo[4,5-c]quinoline], the pIC50 was 6.73 in experiment [1] (setting [5]) and 6.59 on mutant G2019S LRRK2 [2].
As to `C[C@H]1C[C@@H](n2c(Cc3cn4ncsc4n3)nc3cnc4ccc(Cl)cc4c32)CCO1` (single isomer, unassigned) [Example 64], the figures for the negative logarithm of the IC50 (pIC50) (in experiment [1] (setting [5]); against mutant G2019S LRRK2 [2]) were 6.55 and 6.88, respectively.
`F[C@H]1CC[C@@H](n2c(Cn3cncn3)nc3cnc4ccccc4c32)C1` [Example 26, 1-[(1R,3S)-3-fluorocyclopentyl]-2-(1H-1,2,4-triazol-1-ylmethyl)-1H-imidazo[4,5-c]quinoline]: the pIC50 in experiment [1] (setting [5]) is 6.79; against mutant G2019S LRRK2 [2] it was 6.81.
Consider `COc1ccc(Cc2nc3cnc4ccc(F)cc4c3n2C2CCOC(C)(C)C2)nc1` (stereo not shown) [Example 70, 1-(2,2-dimethyltetrahydro-2H-pyran-4-yl)-8-fluoro-2-[(5-methoxypyridin-2-yl)methyl]-1H-imidazo[4,5-c]quinoline], for which the pIC50 in experiment [1] (setting [5]) was 7.11; against mutant G2019S LRRK2 [2], 7.18.
On to `Cc1cc(Cc2nc3cnc4ccc(Cl)cc4c3n2C2CCOC(CC#N)C2)no1` (single isomer, unassigned; ent-2) [enantiomer of Example 134, [cis-4-{8-chloro-2-[(5-methyl-1,2-oxazol-3-yl)methyl]-1H-imidazo[4,5-c]quinolin-1-yl}tetrahydro-2H-pyran-2-yl]acetonitrile, ENT-2], for which the figures for the pIC50 (in experiment [1] (setting [6]); against mutant G2019S LRRK2 [2]) were 6.45 and 6.49, respectively.
With `C[C@H]1C[C@@H](n2c(Cc3ccon3)nc3cnc4ccc(F)cc4c32)CCO1` [enantiomer of Example 54, 8-fluoro-1-[(2S,4S)-2-methyltetrahydro-2H-pyran-4-yl]-2-(1,2-oxazol-3-ylmethyl)-1H-imidazo[4,5-c]quinoline], the pIC50 in experiment [1] (setting [6]) was 6.48; at mutant G2019S LRRK2 [2], 6.63.
Take `C[C@H]1C[C@@H](n2c(Cc3ccon3)nc3cnc4ccc(C#N)cc4c32)CCO1` (racemic) [Example 21, 1-(cis-2-methyltetrahydro-2H-pyran-4-yl)-2-(1,2-oxazol-3-ylmethyl)-1H-imidazo[4,5-c]quinoline-8-carbonitrile]: the pIC50 was 8.12 in experiment [1] (setting [5]) and 8.35 at mutant G2019S LRRK2 [2].
`C[C@@H]1C[C@H](n2c(Cc3ccon3)nc3cnc4ccc(Cl)cc4c32)CCO1` [Example 52, 8-chloro-1-[(2R,4R)-2-methyltetrahydro-2H-pyran-4-yl]-2-(1,2-oxazol-3-ylmethyl)-1H-imidazo[4,5-c]quinoline]: the figures for the pIC50 (in experiment [1] (setting [5]); at mutant G2019S LRRK2 [2]) were 8.39 and 8.57, respectively.
As for `FC(F)(F)c1cnn(Cc2nc3cnc4ccccc4c3n2C2CCOCC2)c1` [Example 43, 1-(tetrahydro-2H-pyran-4-yl)-2-{[4-(trifluoromethyl)-1H-pyrazol-1-yl]methyl}-1H-imidazo[4,5-c]quinoline], the pIC50 is 6.92 in experiment [1] (setting [5]) and 6.96 on mutant G2019S LRRK2 [2].
For the compound `COc1ccc2ncc3nc(Cc4cn5ncsc5n4)n([C@@H]4CCO[C@H](C)C4)c3c2c1` [Example 90, 2-(imidazo[2,1-b][1,3,4]thiadiazol-6-ylmethyl)-8-methoxy-1-[(2R,4R)-2-methyltetrahydro-2H-pyran-4-yl]-1H-imidazo[4,5-c]quinoline], the pIC50 in experiment [1] (setting [5]) was 7.83; on mutant G2019S LRRK2 [2], 8.19.
As for `FC1(F)CCCCC1n1c(Cc2ccon2)nc2cnc3ccccc3c21` (stereo not shown) [Example 46, 1-(2,2-difluorocyclohexyl)-2-(1,2-oxazol-3-ylmethyl)-1H-imidazo[4,5-c]quinoline], the negative logarithm of the IC50 (pIC50) in experiment [1] (setting [5]) is 6.73; against mutant G2019S LRRK2 [2] it was 7.04.
`Cc1cn2cc(Cc3nc4cnc5ccccc5c4n3C3CCOCC3)nc2s1` [Example 31, 2-[(2-methylimidazo[2,1-b][1,3]thiazol-6-yl)methyl]-1-(tetrahydro-2H-pyran-4-yl)-1H-imidazo[4,5-c]quinoline]: the pIC50 in experiment [1] (setting [5]) was 6.90; against mutant G2019S LRRK2 [2], 6.82.
As to `C[C@@H]1C[C@H](n2c(Cc3ccon3)nc3cnc4ccc(C#N)cc4c32)CCO1` [Example 22, 1-[(2R,4R)-2-methyltetrahydro-2H-pyran-4-yl]-2-(1,2-oxazol-3-ylmethyl)-1H-imidazo[4,5-c]quinoline-8-carbonitrile], the pIC50 in experiment [1] (setting [5]) is 8.28; against mutant G2019S LRRK2 [2], 8.41.
For the compound `Cc1cc(Cc2nc3cnc4ccc(C#N)cc4c3n2C2CCCCC2(F)F)no1` (single isomer, unassigned; ent-2) [Example C94, 1-(2,2-difluorocyclohexyl)-2-[(5-methyl-1,2-oxazol-3-yl)methyl]-1H-imidazo[4,5-c]quinoline-8-carbonitrile, ENT-2], the pIC50 is 7.52 on mutant G2019S LRRK2 [3] and 7.67 in experiment [4].
Take `C[C@@H]1C[C@H](n2c(Cc3cn(C)cn3)nc3cnc4ccc(Cl)cc4c32)CCO1` [Example 131, 8-chloro-2-[(1-methyl-1H-imidazol-4-yl)methyl]-1-[(2R,4R)-2-methyltetrahydro-2H-pyran-4-yl]-1H-imidazo[4,5-c]quinoline]: the pIC50 at mutant G2019S LRRK2 [3] was 8.10; in experiment [4] it was 8.14.
The corresponding values for `Cc1cc(Cc2nc3cnc4ccc(Cl)cc4c3n2[C@@H]2CCO[C@H](CO)C2)no1` [Example 137, [(2S,4R)-4-{8-chloro-2-[(5-methyl-1,2-oxazol-3-yl)methyl]-1H-imidazo[4,5-c]quinolin-1-yl}tetrahydro-2H-pyran-2-yl]methanol] are 7.92 and 7.85.
As to `C[C@@H]1C[C@H](n2c(C(F)c3ccon3)nc3cnc4ccc(Cl)cc4c32)CCO1` (single isomer, unassigned) [Example 237], the values for the pIC50 (on mutant G2019S LRRK2 [3]; in experiment [4]) were 8.41 and 8.40, respectively.
With `Cc1cc(Cc2nc3cnc4ccc(C#N)cc4c3n2C2CCCCC2(F)F)no1` (stereo not shown) [Example 151, 1-(2,2-difluorocyclohexyl)-2-[(5-methyl-1,2-oxazol-3-yl)methyl]-1H-imidazo[4,5-c]quinoline-8-carbonitrile, formate salt], the pIC50 was 7.59 at mutant G2019S LRRK2 [3] and 7.78 in experiment [4].
